Laboratory results taken from patent publication US20190015395A1, “TACROLIMUS FOR TREATING TDP-43 PROTEINOPATHY” (CHRONOS THERAPEUTICS LIMITED, priority 2016, published 2019).

Key:
TDP-43(Q331K) mice = assay: Rotarod testing of TDP-43(Q331K) transgenic mice; assay type: in vivo, mouse
TNF-α = assay: Blood TNF-α levels in healthy human volunteers; assay type: in vivo
Protocol: (§1) A hard gelatine capsule was filled with the following composition:
(§2) One capsule as above containing 0.3 mg tacrolimus was administered daily to healthy human volunteers for three successive days. […] Similarly, no change in TNF-α levels occurred as a result of administering 0.6 mg daily of tacrolimus to healthy volunteers. The average trough level of tacrolimus (level after 24 hours of administration of each dose) observed was approximately 220 pg/mL.

[1] = Tacrolimus blood levels in healthy human volunteers after capsule; assay type: in vivo
Protocol: as §1, §2

[2] = in vivo, 2 mg/kg/day
Protocol: Based on pharmacokinetic analysis, a tacrolimus dose of 2 mg/kg/day in the mouse is believed to correspond to a human oral dose of about 0.33-0.44 mg/day oral for a 70 kg person.

[3] = tested on: C. elegans expressing GFP-TDP-43(CTF) (C-terminal fragment of human TDP-43, aas 208-414) in the body wall muscle; assay: C. elegans lifespan assay, strain expressing TDP-43 C-terminal fragment; assay type: in vivo; conditions: 10 μg/ml in the NGM agar, vs DMSO vehicle, p<0.005
Description: C-terminal fragments of TDP-43 are associated with pathology in ALS and FTD patients. In particular, proteolytic cleavage at Arg208 has been reported to generate a pathogenic C-terminal fragment (see Wang et al., 2013, J. Biol. Chem. 288(13):9049-57 and Igaz et al., 2009, J. Biol. Chem. 284(13):8516-24; the disclosures of which are incorporated herein by reference). Therefore, a transgenic C. elegans strain was generated that expresses the C-terminal fragment (CTF) of human TDP-43 (aas 208-414) in the body wall muscle, fused via a short linker region to the C-terminus of a GFP tag. Expression is under the control of the myo-3 promoter. […]
(§3) C. elegans cultures were synchronised by incubating an asynchronous culture in basic sodium hypochlorite solution to kill everything but the bleach-resistant mature eggs. […] From this point on, each ageing population was inspected daily and viability assessed by counting the number of dead worms.
(§4) The cumulative number of dead worms for each population was used to generate a survival/viability plot to determine chronological lifespan (CLS). Survival was analysed using the Kaplan-Meier log-rank survival analysis method, using the Online Application for Survival (OASIS; see http://sbi.postech.ac.kr/oasis). […]

[4] = tested on: control (GFP-expressing) C. elegans; assay: C. elegans lifespan assay, control strain expressing GFP only; assay type: in vivo; conditions: 10 μg/ml in the NGM agar, vs DMSO vehicle, p<0.01
Protocol: A control C. elegans strain was generated in the same background, in which the GFP reporter only is expressed under the control of the myo-3 promoter.
These strains were crossed with worms carrying a mutation in the bus-5 gene, which confers drug-sensitivity, to produce drug-sensitive strains expressing GFP alone (“GFP”) or expressing the GFP-TDP-43 CTF fusion protein (“GFP-TDP-43(CTF)”).
as §3, with “eggs. Approximately 300 eggs were added on to agar plates and then allowed to hatch and develop (to produce approximately 200 worms) in the presence of the test compound (or vehicle) and bacterial food source.” for “eggs.”
as §4

Structure (SMILES)	rotarod latency / decline in motor function (TDP-43(Q331K) mice; 10 mg/kg p.o. per day in water, up to 60 weeks, vs water-treated control)	rotarod latency / decline in motor function (TDP-43(Q331K) mice; 0.25 mg/kg per day p.o., 60 weeks from 3 weeks of age, vs vehicle)	rotarod latency / decline in motor function (TDP-43(Q331K) mice; 0.25 mg/kg per day p.o., 60 weeks from 3 weeks of age, vs vehicle, listed as Tacrolimus)	rotarod latency / decline in motor function (TDP-43(Q331K) mice; 1.25 mg/kg per day p.o., 60 weeks from 3 weeks of age, vs vehicle)	rotarod latency / decline in motor function (TDP-43(Q331K) mice; 1.25 mg/kg per day p.o., 60 weeks from 3 weeks of age, vs vehicle, listed as Tacrolimus)	rotarod latency / decline in motor function (TDP-43(Q331K) mice; 2.5 mg/kg per day p.o., 60 weeks from 3 weeks of age, vs vehicle)	rotarod latency / decline in motor function (TDP-43(Q331K) mice; 2.5 mg/kg per day p.o., 60 weeks from 3 weeks of age, vs vehicle, listed as Tacrolimus)	change in blood TNF-α levels (TNF-α; 0.3 mg capsule daily for three successive days)	change in TNF-α levels (TNF-α; 0.6 mg daily)	average peak level ([1]; 0.3 mg capsule daily for three days, healthy volunteers)	expected trough level ([1]; two capsules simultaneously, single dose of 0.6 mg)	human oral dose corresponding to the mouse dose [2] [mg/day]	lifespan (survival) of worms expressing the TDP-43 C-terminal fragment [3]	lifespan (survival) of worms expressing the TDP-43 C-terminal fragment ([3]; listed as Tacrolimus)	lifespan (survival) of control GFP-expressing worms [4]	lifespan (survival) of control GFP-expressing worms ([4]; listed as Tacrolimus)
Nc1nc2ccc(OC(F)(F)F)cc2s1 [riluzole]	delays the progression of the decline in rotarod performance	–	–	–	–	–	–	–	–	–	–	–	–	–	–	–
C=CC[C@@H]1/C=C(\C)C[C@H](C)C[C@H](OC)[C@H]2O[C@@](O)(C(=O)C(=O)N3CCCC[C@H]3C(=O)O[C@H](/C(C)=C/[C@@H]3CC[C@@H](O)[C@H](OC)C3)[C@H](C)[C@@H](O)CC1=O)[C@H](C)C[C@@H]2OC [tacrolimus]	–	delays the progression of motor decline	delays the progression of the decline in rotarod performance	delays the progression of motor decline	delays the progression of the decline in rotarod performance	delays the progression of motor decline	delays the progression of the decline in rotarod performance	No significant changes	no change	approximately 3700 pg/mL	about 440 pg/mL	0.33 to 0.44	partially rescuing the lifespan deficit	significant increase in lifespan	increasing the lifespan	significant increase in lifespan
